Results reported in patent US20110262490A1, “POLYMER-AGENT CONJUGATES, PARTICLES, COMPOSITIONS, AND RELATED METHODS OF USE” (priority 2009, published 2011).

Legend:
B16.F10 cells = test: CellTiter-Glo Luminescent Cell Viability Assay (cytotoxicity); assay type: cell-based, mouse; details: 24, 48 and 72 hours
Protocol: B16.F10 cells, grown to 85-90% confluency in 150 cm^2 flasks (passage <30), were resuspended in media (MEM-alpha, 10% HI-FBS, 1× antibiotic-antimycotic) and added to 96-well opaque-clear bottom plates at a concentration of 1500 cells/well in 200 μL/well. The cells were incubated at 37° C. with 5% CO2 for 24 hours. The following day, serial dilutions of 2× concentrated particles and 2× concentrated free drug were made in 12-well reservoirs with media to specified concentrations. The media in the plates was replaced with 100 μL of fresh media and 100 μL of the corresponding serially diluted drug. Three sets of plates were prepared with duplicate treatments. Following 24, 48 and 72 hours of incubation at 37° C. with 5% CO2, the media in the plates was replaced with 100 μL of fresh media and 100 μL of CTG solution, and then incubated for 5 minutes on a plate shaker at room temperature set to 450 rpm and allowed to rest for 15 minutes. Viable cells were measured by luminescence using a microtiter plate reader. The data was plotted as % viability vs. concentration and standardized to untreated cells.

B16.F10 tumor = test: In vivo efficacy in B16.F10 mouse model of melanoma (Example 39)
Protocol: The treatments were administered on days 5, 8, and 12 (biweekly×3 injections) post tumor implantation. Health status of the animals was monitored and tumor size was measured three times a week. […] Tumors from each animal were dissected and tumor size was measured. Tumor volume was calculated using the formula: (width×width×length)/2 mm^3.

## Bis(Docetaxel) Glutamate-5050 PLGA-O-Acetyl [Example 9]
B16.F10 cells
  Growth inhibition of B16.F10 cells: inhibited the growth of B16.F10 cells in a dose and time dependent manner

## Docetaxel-5050 PLGA-O-Acetyl [Example 8]
B16.F10 cells
  Growth inhibition of B16.F10 cells: inhibited the growth of B16.F10 cells in a dose and time dependent manner

## CC(=O)O[C@H]1C(=O)[C@@]2(C)[C@H]([C@H](OC(=O)c3ccccc3)[C@]3(O)C[C@H](OC(=O)[C@H](O)[C@@H](NC(=O)c4ccccc4)c4ccccc4)C(C)=C1C3(C)C)[C@]1(OC(C)=O)CO[C@@H]1C[C@@H]2O [Free paclitaxel, paclitaxel]
B16.F10 tumor; 6 mg/kg IV days 5, 8, 12
  Day-17 TGI: 57%
B16.F10 tumor; 6 mg/kg IV days 5, 8, 12, listed as free paclitaxel
  Day-17 TGI: 57%
B16.F10 tumor; 15 mg/kg IV days 5, 8, 12
  Day-17 TGI: 83%
B16.F10 tumor; 15 mg/kg IV days 5, 8, 12, listed as free paclitaxel
  Day-17 TGI: 83%

## Doxorubicin 5050 PLGA Amide [Example 5]
B16.F10 cells
  Growth inhibition of B16.F10 cells: inhibited the growth of B16.F10 cells in a dose and time dependent manner

## Paclitaxel-5050 PLGA-O-Acetyl [Example 7]
B16.F10 cells
  Growth inhibition of B16.F10 cells: inhibited the growth of B16.F10 cells in a dose and time dependent manner
